Experiment [1] concerns the target T1, PDE4B (Homo sapiens, UniProt Q07343).
T1 construct: purchased BPS Bioscience, San Diego
Nature of the experiment: In vitro PDE4 inhibition study, PDE4B (BPS Bioscience). The format is binding. Here is the method:
The IC50 values of Compound 8 on PDE4 isoforms were determined by BPS Bioscience, San Diego. In brief, coat proteins (PDE4 isoforms) were added into the plate in a volume of 50 μl (2-5 ng/μl) at 4° C. overnight. The next day, Compound 8 was added to the coated plate with varying concentrations followed by addition of the corresponding biotinylated binding partner. The reaction was incubated for 2 hours at room temperature. Binding assays were performed in duplicate at each concentration and the plates were read by using Synergy 2 BioTek plate reader. The luminescence data were analyzed using the Graphpad Prism. […] Data for a reference compounds or antibodies are included as a control for inhibition. “ND” indicates the compound was not tested.

For experiment [2], the target named is T2, PDE4B1 (Homo sapiens, UniProt Q07343).
T2 construct: expressed in transfected cells; host or cells: HEK293
The experiment is described as follows: Cell-based PDE4B assay (HEK293, PDE4B1 vector, CRE luciferase reporter, forskolin). The settings on record: versus apremilast. On the procedure:
Cells were incubated at 37° C. and 5% CO2 overnight. […] Cell based assays were performed in triplicate at each concentration.
A general note: Reporter assays use an easily measured gene product as a stand-in for the process of interest.

Experiment [3] has as its system cocaine self-administered mice. The experiment is described as follows: Cocaine self-administration (seeking and taking behavior). The format is in vivo, mouse. Particulars: i.p., 30 min before 2 h FR1 session. On the procedure:
(a) Surgery procedure: WT mice (10-12 weeks, both genders) were implanted with permanently indwelling catheters (Plastics one) into the right jugular vein under a combination of ketamine hydrochloride ([…], i. p.) and xylazine ([…], i.p.) anesthesia. The catheter is tied to the vein with surgical silk and is passed subcutaneously to the back of the mouse where the catheter is affixed to a small plastic pedestal (26 G, Plastics One Company). After the surgery, the catheters were flushed daily with heparin (30 IU/mi) to avoid clotting. Mice were allowed at least 7 days of recovery in their home before the start of the experiments.
(b) The establishment of cocaine self-administered mice: Mice were individually put into sound-mitigation cubicles (Coulbourne Instrument) for the training of self-administered cocaine (1.0 mg/kg/infusion). […] A timeout period of 15 seconds followed each drug injection. All responses were recorded automatically using a computer interface and Graphic State Notation 4 software (Coulbourne Instrument). Mice were trained to self-administer cocaine during one daily session under a fixed ratio 1 (FR1) schedule. […]
(c) The effects of Compound 8 on cocaine-mediated seeking and taking behavior. […] The numbers of active nose-poke and cocaine infusions were recorded. […]

The subject of experiment [4] is WT mice. Nature of the experiment: Locomotor analysis (cocaine-induced hyperlocomotion, open field). The format is in vivo, mouse. Particulars: for Locomotor activity of compound alone: Compound 8 + saline. On the procedure: Locomotor analysis: WT mice (both gender, n=6-8) were divided into four groups receiving various treatments: (1) vehicle+saline; (2) vehicle+cocaine; (3) Compound 8+saline; and (4) Compound 8+cocaine. Cocaine was administered at 20 mg/kg (i.p.) and Compound 8 was used at two different doses 5 or 10 mg/kg (i.p.). Compound 8 was firstly injected into the mice and 30 min later followed with cocaine administration. To investigate the effects of Compound 8 on acute locomotor response, immediately following cocaine injection, mice were put into the open field apparatus (Truescan, Coulbourn instrument) to detect locomotor activity for 45 min. The TruScan photobeam activity system consists of a clear arena with infrared sensors located on a ring 3 cm above floor level. There are 16 beams spaced 1 inch apart on the sensor ring that are used to detect movements by mice. […] To investigate the effects of Compound 8 on locomotor sensitization, mice were repeatedly injected with Compound 8 and cocaine for 7 consecutive days and the locomotor responses were recorded every other day.

Each structure is given as a SMILES string.

T1 sequence (Q07343 whole entry): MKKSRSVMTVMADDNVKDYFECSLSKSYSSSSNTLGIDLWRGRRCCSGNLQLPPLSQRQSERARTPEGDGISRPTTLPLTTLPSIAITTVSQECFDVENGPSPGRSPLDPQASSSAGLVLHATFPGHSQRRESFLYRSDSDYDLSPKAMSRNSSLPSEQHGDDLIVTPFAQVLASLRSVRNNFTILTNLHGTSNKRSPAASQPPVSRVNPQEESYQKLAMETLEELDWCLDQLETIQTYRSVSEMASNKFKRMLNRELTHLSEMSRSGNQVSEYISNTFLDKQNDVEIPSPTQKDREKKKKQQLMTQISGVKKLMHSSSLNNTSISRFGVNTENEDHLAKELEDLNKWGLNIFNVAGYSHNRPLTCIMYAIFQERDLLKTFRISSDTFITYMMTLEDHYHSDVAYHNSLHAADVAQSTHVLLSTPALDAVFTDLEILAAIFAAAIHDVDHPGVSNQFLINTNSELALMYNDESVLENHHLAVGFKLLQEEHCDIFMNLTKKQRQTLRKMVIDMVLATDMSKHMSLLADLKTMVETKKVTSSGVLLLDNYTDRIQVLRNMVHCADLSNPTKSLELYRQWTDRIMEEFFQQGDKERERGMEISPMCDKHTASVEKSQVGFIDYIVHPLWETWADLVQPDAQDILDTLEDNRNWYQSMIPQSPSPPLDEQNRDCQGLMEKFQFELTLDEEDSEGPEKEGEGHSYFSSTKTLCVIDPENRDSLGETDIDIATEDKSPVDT
T2 sequence (Q07343 whole entry): as above

By IC50 is commonly meant the concentration that inhibits the measured activity by half. Consider `O=C(c1cc2cccnc2n1-c1ccc(Cl)c(Cl)c1)N1CC(F)(F)C1` [Compound 8, (1-(3,4-dichlorophenyl)-1H-pyrrolo[2,3-b]pyridin-2-yl)(3,3-difluoroazetidin-1-yl)methanone], for which the IC50 in experiment [1] stood at 140 nM. Moreover, the “EC50 for PDE4B inhibition relative to apremilast” value in experiment [2] is “ten-fold lower EC50”. Also, the “Cocaine-mediated seeking and taking behavior (active nose-pokes, cocaine infusions)” value in experiment [3] is “significantly decreased”. The Cocaine-induced hyperlocomotion result in experiment [4] (5 or 10 mg/kg i.p. 30 min before cocaine 20 mg/kg i.p.) is recorded as “inhibited the cocaine induce hyperlocomotion”. Further, the “Locomotor activity of compound alone” value in experiment [4] is given as “without any increase alone”; in experiment [4] (listed as compound 8) it was “without any increase by itself”.

The values are drawn from US11180499B2, “Phosphodiesterase inhibitors” (BOARD OF REGENTS OF THE UNIVERSITY OF NEBRASKA, priority 2018, dated 2021).
